Experiments:
UGT1A1 = biological target: T1, UGT1A1 (Homo sapiens, UniProt P22309); test: Inhibition of UGT1A1 (SN-38 glucuronidation) in human liver microsomes; type: in vitro ADME; set-up: tissue XenoTech XTreme 200; host or cells: pooled human liver microsomes; conditions: substrate SN-38; HLMs 0.25 mg/mL; average ± standard error
T1 sequence (P22309 26-533): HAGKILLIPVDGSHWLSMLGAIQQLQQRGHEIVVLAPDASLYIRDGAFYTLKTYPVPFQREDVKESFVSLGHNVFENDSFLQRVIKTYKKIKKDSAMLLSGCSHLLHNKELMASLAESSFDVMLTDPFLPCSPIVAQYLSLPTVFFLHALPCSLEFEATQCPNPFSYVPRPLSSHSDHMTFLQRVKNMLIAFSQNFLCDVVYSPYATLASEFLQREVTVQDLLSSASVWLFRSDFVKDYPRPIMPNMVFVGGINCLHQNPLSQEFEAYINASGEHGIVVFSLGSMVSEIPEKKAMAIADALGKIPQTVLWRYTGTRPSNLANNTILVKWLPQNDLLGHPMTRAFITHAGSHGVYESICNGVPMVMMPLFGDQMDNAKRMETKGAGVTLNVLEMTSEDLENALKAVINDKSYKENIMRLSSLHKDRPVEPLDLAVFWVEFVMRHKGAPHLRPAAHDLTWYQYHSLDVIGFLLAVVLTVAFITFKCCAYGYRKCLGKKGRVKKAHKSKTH
Method: (§1) The ability of selamariscina A to inhibit the metabolism of six UGT enzyme probe substrates was evaluated using previously developed methods with minor modifications. The microsomal incubation was performed by dividing the non-interactive substrate cocktail sets (set A included SN-38 for UGT1A1, CDCA for UGT1A3 and TFP for UGT1A4 while set B included N-SER for UGT1A6, MPA for UGT1A9 and NX for UGT2B7) (Table 2). In brief, HLMs (0.25 mg/mL) were activated by incubation in the presence of alamethicin (25 µg/mL) for 15 min on ice. After the addition of UGT probe substrates and inhibitor (0, 0.5, 2, 5, 20 and 50 μM), the incubation mixtures were pre-incubated at 37 °C for 5 min. […] After centrifugation at 18,000 g (5 min, 4 °C), aliquots of supernatants were analyzed by LC–MS/MS. […]
(§2) All metabolites and the IS were separated on a Kinetex XB-C18 column (100 × 2.10 mm, 2.6 μm, 100 Å; Phenomenex, Torrance, CA, USA) and analyzed using a Shimadzu LCMS 8060 triple-quadrupole mass spectrometer coupled with a Nexera X2 ultra high-performance liquid chromatography system (Shimadzu, Kyoto, Japan) equipped with an electrospray ionization interface. […] Quantitation was conducted in selected reaction monitoring (SRM) modes with the precursor-to-product ion transition for each metabolite (Table 1 and Table 2).
(§3) We analyzed the data with Shimadzu LabSolution LC–MS software. […]

CYP2C8 = biological target: T2, CYP2C8 (Homo sapiens, UniProt P10632); conditions: read-out: IC50, CYP2C8, known inhibitor; cited from earlier work
T2 sequence (P10632 1-490): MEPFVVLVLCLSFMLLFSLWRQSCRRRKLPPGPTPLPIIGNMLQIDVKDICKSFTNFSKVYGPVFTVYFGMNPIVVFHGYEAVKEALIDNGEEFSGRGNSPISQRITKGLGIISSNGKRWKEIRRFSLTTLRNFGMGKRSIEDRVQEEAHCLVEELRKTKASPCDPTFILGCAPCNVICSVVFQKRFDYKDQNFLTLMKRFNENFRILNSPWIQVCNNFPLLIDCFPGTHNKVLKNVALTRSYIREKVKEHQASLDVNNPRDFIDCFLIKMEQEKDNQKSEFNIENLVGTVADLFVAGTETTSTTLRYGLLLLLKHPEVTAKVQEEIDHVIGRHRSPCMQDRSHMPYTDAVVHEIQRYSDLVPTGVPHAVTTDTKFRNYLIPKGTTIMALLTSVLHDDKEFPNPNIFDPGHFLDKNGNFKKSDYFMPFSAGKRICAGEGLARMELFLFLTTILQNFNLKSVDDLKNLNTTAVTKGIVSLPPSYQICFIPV

UGT1A4 = biological target: T3, UGT1A4 (Homo sapiens, UniProt P22310); test: Inhibition of UGT1A4 (trifluoperazine glucuronidation) in human liver microsomes; type: in vitro ADME; conditions: substrate trifluoperazine; HLMs; average ± standard error
T3 construct: tissue XenoTech XTreme 200; host or cells: pooled human liver microsomes
Method: as §1, §2, §3

UGT1A3 = biological target: T4, UGT1A3 (Homo sapiens, UniProt P35503); test: Inhibition of UGT1A3 (chenodeoxycholic acid glucuronidation) in human liver microsomes; type: in vitro ADME; conditions: substrate chenodeoxycholic acid; HLMs
T4 construct: tissue XenoTech XTreme 200; host or cells: pooled human liver microsomes
Method: as §1, §2, §3

T4 sequence (P35503 29-534): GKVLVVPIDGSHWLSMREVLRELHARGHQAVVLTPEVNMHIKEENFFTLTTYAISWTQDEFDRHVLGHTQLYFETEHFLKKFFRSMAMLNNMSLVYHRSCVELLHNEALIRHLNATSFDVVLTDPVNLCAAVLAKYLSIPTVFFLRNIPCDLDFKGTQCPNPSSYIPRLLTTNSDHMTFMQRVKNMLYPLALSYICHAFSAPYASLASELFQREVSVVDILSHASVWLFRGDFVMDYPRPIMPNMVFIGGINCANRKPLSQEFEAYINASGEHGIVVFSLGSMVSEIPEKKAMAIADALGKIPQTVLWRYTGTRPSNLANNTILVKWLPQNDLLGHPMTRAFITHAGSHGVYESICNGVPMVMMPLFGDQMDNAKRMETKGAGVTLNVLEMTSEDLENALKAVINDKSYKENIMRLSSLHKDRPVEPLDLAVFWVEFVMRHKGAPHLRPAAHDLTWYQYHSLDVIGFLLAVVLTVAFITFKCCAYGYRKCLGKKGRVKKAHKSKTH
T3 sequence (P22310 29-534): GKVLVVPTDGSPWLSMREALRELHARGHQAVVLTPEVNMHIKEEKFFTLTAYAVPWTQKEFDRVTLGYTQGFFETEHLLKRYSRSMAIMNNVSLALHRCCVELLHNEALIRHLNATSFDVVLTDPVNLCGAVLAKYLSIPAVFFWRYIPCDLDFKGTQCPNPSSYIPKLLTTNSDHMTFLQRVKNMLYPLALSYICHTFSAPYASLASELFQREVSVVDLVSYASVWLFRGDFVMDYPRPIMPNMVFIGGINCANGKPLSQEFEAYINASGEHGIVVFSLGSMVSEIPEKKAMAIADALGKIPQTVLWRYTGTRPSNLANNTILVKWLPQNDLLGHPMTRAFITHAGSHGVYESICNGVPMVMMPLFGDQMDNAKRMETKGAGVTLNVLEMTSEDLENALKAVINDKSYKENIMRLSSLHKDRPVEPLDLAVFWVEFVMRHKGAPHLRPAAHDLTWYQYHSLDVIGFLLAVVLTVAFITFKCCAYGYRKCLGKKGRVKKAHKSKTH

O=c1cc(-c2ccc(O)c(-c3c(O)cc(O)c4c(=O)cc(-c5ccc(O)cc5)oc34)c2)oc2cc(O)cc(O)c12 [amentoflavone]
IC50 (UGT1A1): 1.7 µM

CC(C)(O)c1ccccc1CC[C@@H](SCC1(CC(=O)O)CC1)c1cccc(/C=C/c2ccc3ccc(Cl)cc3n2)c1 [montelukast, reference compound]
IC50 (CYP2C8): 0.02 µM

O=C1CC(c2cc(-c3c(O)ccc4c(=O)cc(-c5ccc(O)cc5)oc34)c(O)cc2O)Oc2cc(O)cc(O)c21 (centres unmarked) [selamariscina A]
IC50 (UGT1A4): 7.7 ± 1.9 µM | IC50 (UGT1A1): 1.7 ± 0.5 µM | IC50 (UGT1A3): > 50 µM

Source: article PMC7238120, “Strong and Selective Inhibitory Effects of the Biflavonoid Selamariscina A against CYP2C8 and CYP2C9 Enzyme Activities in Human Liver Microsomes” (Pharmaceutics, 2020)
